Measured values from patent US6417174B1, “Inhibitors of β-lactamases and uses therefor” (Northwestern University, priority 1997, dated 2002).
Like-named read-outs stand apart in the source and are kept apart here.

Assays:
[1] = system: MC4100/AmpC-Enter (OmpF-); assay: Antibacterial activity, wider range of bacteria; type: cell-based, E. coli; conditions: Table 6
Experimental: (§1) Bacterial cell culture testing was performed and interpreted following the guidelines of the National Committee for Clinical Laboratory Standards (National Committee for Clinical Laboratory Standards. Methods for Dilution Antimicrobial Susceptibility Tests for Bacteria that Grow Aerobically. Approved Standard M7-A3. National Committee for Clinical Laboratory Standards, Villanova, Pa. 1993). After incubation, the growth of the cells was visually inspected. The minimum inhibitory concentration (MIC) is the lowest concentration where there no cell growth was observed.
(§2) All bacterial strains and plasmids are available from Jesus Blazquez and Fernando Baquero, Servicio de Microbiologia, Hospital Ramon y Cajal National Institute of Health, Madrid, Spain.

[2] = system: MC4100/AmpC-Enter (OmpR-); assay: Antibacterial activity, wider range of bacteria; type: cell-based, E. coli; conditions: Table 6
Experimental: as §1, §2

[3] = system: MC4100/AmpC-Enter (OmpC-); assay: Antibacterial activity, wider range of bacteria; type: cell-based, E. coli; conditions: Table 6
Experimental: as §1, §2

MC4 100/AmpC-Enter = assay: Antibacterial activity, wider range of bacteria; type: cell-based, E. coli; conditions: Table 6
Experimental: as §1, §2

[4] = system: E. coli RYC1000 harboring plasmid pBGS19 (no β-lactamase); assay: microbe, parasite or virus in culture; type: cell-based, Escherichia coli; conditions: for MIC of ceftazidime plus inhibitor: proportion 4/1; for MIC of inhibitor used alone without ceftazidime: Table 3B; for MIC of inhibitor used alone without amoxicillin: Table 4B, EC, not tested above 128 μg/ml, “256” indicates no inhibition of cell growth
Experimental: (§3) After incubation, the growth of the cells was visually inspected. The minimum inhibitory concentration (MIC) is the lowest concentration where there no cell growth was observed.
(§4) The following strains were used: Enterobacter cloacae cell line with derepressed β-lactamase production (Ent-Der), and Escherichia coli RYC1000 (araD139 D lacU169 rpsL D rib7 thiA gyrA recA56) cell lines, harboring the plasmid pBGS19 (with no β-lactamase), or the β-lactamase containing plasmids pBGAmpC (AmpC β-lactamase from E. coli; Eco-AmpC), or pBGAmpC-MHN (AmpC β-lactamase from Enterobacter cloacae; Eco-AmpCEnt). […] TEM-10 and TEM-24 differ from TEM-1 due to the following point substitutions: TEM-10 (R164S, E240K); TEM-24 (L102K, L162S, S235T, A237K). TEM-10 and TEM-24 also differ from TEM-1 in being extended spectrum enzymes (i.e., they react with a greater range of substrates than TEM-1). Also tested were clinical isolates of Pseudomonas aeruginosa. All bacterial strains and plasmids are available from Jesus Blazquez and Fernando Baquero, Servicio de Microbiologia, Hospital Ramon y Cajal, National Institute of Health, Madrid, Spain.
(§5) Several ratios, including 1:1, 2:1, 4:1, and 1:3, of β-lactam antibiotic (amoxicillin (AX) or ceftazidime (CAZ)) to boronic acid compound were used in the assays. Tazobactam (TAZO), a clinically used β-lactamase inibitor, was used as a positive control.

[5] = system: E. coli RYC1000 harboring plasmid pBGAmpC-MHN (AmpC β-lactamase of Enterobacter cloacae); assay: microbe, parasite or virus in culture; type: cell-based, Escherichia coli; conditions: for MIC of ceftazidime plus inhibitor: proportion 4/1, given as CAZ/inhibitor; for MIC of inhibitor used alone without ceftazidime: Table 3B; for MIC of amoxicillin plus inhibitor: Table 4A, EC-AmpCEn, proportion 4/1; for MIC of inhibitor used alone without amoxicillin: Table 4B, ECAmpCEn, not tested above 128 μg/ml, “256” indicates no inhibition of cell growth; for MIC of ceftazidime plus inhibitor: values in µg/ml
Experimental: as §3, §4, §5

[6] = system: E. coli RYC1000 harboring plasmid pBGTEM-24 (TEM-24 β-lactamase); assay: microbe, parasite or virus in culture; type: cell-based, Escherichia coli; conditions: for MIC of ceftazidime plus inhibitor: proportion 4/1, given as CAZ/inhibitor; for MIC of inhibitor used alone without ceftazidime: Table 3B; for MIC of ceftazidime plus inhibitor: values in µg/ml
Experimental: as §3, §4, §5

[7] = system: Ps. aeruginosa-2 (clinical isolate); assay: Antibacterial activity, wider range of bacteria; type: cell-based, Pseudomonas aeruginosa; conditions: Table 6
Experimental: as §1, §2

[8] = system: Ps. aeruginosa-3 (clinical isolate); assay: Antibacterial activity, wider range of bacteria; type: cell-based, Pseudomonas aeruginosa; conditions: Table 6
Experimental: as §1, §2

[9] = system: β-lactamase derepressed strain of Enterobacter cloacae (Ent-Der); assay: microbe, parasite or virus in culture; type: cell-based; conditions: for MIC of ceftazidime plus inhibitor: proportion 4/1, given as CAZ/inhibitor; for MIC of inhibitor used alone without ceftazidime: Table 3B; for MIC of amoxicillin plus inhibitor: Table 4A, proportion 4/1; for MIC of amoxicillin plus inhibitor / MIC of inhibitor used alone without amoxicillin: Ent-Der.; for MIC of inhibitor used alone without amoxicillin: Table 4B, not tested above 128 μg/ml, “256” indicates no inhibition of cell growth; for MIC of ceftazidime plus inhibitor: values in µg/ml
Experimental: as §3, §4, §5

[10] = system: MC4100/AmpC-E. coli (OmpC-); assay: Antibacterial activity, wider range of bacteria; type: cell-based; conditions: Table 6
Experimental: as §1, §2

[11] = system: Citrobacter freundii derrepressed (clinical isolate); assay: Antibacterial activity, wider range of bacteria; type: cell-based; conditions: Table 6
Experimental: as §1, §2

[12] = system: Pseudomonas aeruginosa-1 (clinical isolate); assay: Antibacterial activity, wider range of bacteria; type: cell-based; conditions: Table 6
Experimental: as §1, §2

[13] = system: Enterobacter cloacae derrepressed (clinical isolate); assay: Antibacterial activity, wider range of bacteria; type: cell-based; conditions: Table 6
Experimental: as §1, §2

MC4100/AmpC-E. coli = assay: Antibacterial activity, wider range of bacteria; type: cell-based; conditions: Table 6
Experimental: as §1, §2

[14] = system: E. coli derrepr. (clinical isolate); assay: Antibacterial activity, wider range of bacteria; type: cell-based; conditions: Table 6
Experimental: as §1, §2

[15] = system: MC4100/AmpC-E. coli (OmpR-); assay: Antibacterial activity, wider range of bacteria; type: cell-based; conditions: Table 6
Experimental: as §1, §2

[16] = system: MC4100/AmpC-E. coli (OmpF-); assay: Antibacterial activity, wider range of bacteria; type: cell-based; conditions: Table 6
Experimental: as §1, §2

[17] = system: E. coli RYC1000 harboring a plasmid coding for a mutant of AmpC from Enterobacter (ECR-AmpCEnM); assay: microbe, parasite or virus in culture; type: cell-based, Escherichia coli; conditions: for MIC of amoxicillin plus inhibitor: Table 4A, ECR-AmpCEnM, proportion 4/1; for MIC of inhibitor used alone without amoxicillin: Table 4B, ECRAmpCEnM, not tested above 128 μg/ml, “256” indicates no inhibition of cell growth
Experimental: as §3, §4, §5

[18] = system: E. coli RYC1000 harboring pBGAmpC-E. coli producing AmpC (ECR-AmpCEc); assay: microbe, parasite or virus in culture; type: cell-based, Escherichia coli; conditions: ECR-AmpCEc; for MIC of amoxicillin plus inhibitor: Table 4A, proportion 4/1; for MIC of inhibitor used alone without amoxicillin: Table 4B, not tested above 128 μg/ml, “256” indicates no inhibition of cell growth
Experimental: as §3, §4, §5

[19] = system: E. coli RYC1000 harboring pBGTEM-10 producing TEM-10 β-lactamase (EC-T10); assay: microbe, parasite or virus in culture; type: cell-based, Escherichia coli; conditions: EC-T10; for MIC of amoxicillin plus inhibitor: Table 4A, proportion 4/1; for MIC of inhibitor used alone without amoxicillin: Table 4B, not tested above 128 μg/ml, “256” indicates no inhibition of cell growth
Experimental: as §3, §4, §5

[20] = system: E. coli RYC1000 harboring pBGTEM-1 producing TEM-1 β-lactamase (EC-T1); assay: microbe, parasite or virus in culture; type: cell-based, Escherichia coli; conditions: EC-T1; for MIC of amoxicillin plus inhibitor: Table 4A, proportion 4/1; for MIC of inhibitor used alone without amoxicillin: Table 4B, not tested above 128 μg/ml, “256” indicates no inhibition of cell growth
Experimental: as §3, §4, §5

[21] = biological target: AmpC β-lactamase from E. coli (Escherichia coli, UniProt P00811); assay: biochemical; type: biochemical
Chain of AmpC β-lactamase from E. coli (P00811 20-377): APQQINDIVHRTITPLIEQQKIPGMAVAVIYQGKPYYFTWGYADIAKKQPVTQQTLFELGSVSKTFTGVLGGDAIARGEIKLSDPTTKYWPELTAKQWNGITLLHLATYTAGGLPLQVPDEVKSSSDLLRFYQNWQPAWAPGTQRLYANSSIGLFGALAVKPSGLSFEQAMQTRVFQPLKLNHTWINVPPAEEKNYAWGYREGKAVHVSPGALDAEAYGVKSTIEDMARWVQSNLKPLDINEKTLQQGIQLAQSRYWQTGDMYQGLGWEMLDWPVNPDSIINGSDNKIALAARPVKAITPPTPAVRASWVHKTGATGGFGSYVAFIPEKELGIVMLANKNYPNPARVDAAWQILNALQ

[22] = biological target: T1, TEM-1 β-lactamase from E. coli (Escherichia coli, UniProt P62593); assay: Inhibition of TEM-1 β-lactamase, spectrophotometric assay (FAP substrate); type: biochemical
T1 construct: gift: Natalie Strynadka, University of Alberta
T1 sequence (P62593 24-286 limits assumed): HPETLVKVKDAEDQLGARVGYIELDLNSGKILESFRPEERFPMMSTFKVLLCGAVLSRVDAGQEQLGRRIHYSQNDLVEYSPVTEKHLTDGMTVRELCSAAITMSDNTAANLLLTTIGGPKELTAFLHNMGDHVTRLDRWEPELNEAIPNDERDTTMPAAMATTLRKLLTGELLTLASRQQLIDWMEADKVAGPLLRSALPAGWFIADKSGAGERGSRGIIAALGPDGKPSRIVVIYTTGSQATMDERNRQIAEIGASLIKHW

[23] = Tables 2A/2B, pH 7.0, 25° C., 100 μM cephalothin, read-out: Ki E. coli AmpC

SMILES: CC(C)(O/N=C(\C(=O)N[C@@H]1C(=O)N2C(C(=O)[O-])=C(C[n+]3ccccc3)CS[C@H]12)c1csc(N)n1)C(=O)O [CAZ, ceftazidime, reference compound]
- MIC, agent alone (CAZ alone / BZB only) [1]: 32
- MIC, agent alone (CAZ alone / BZB only) [2]: 32
- MIC, agent alone (CAZ alone / BZB only) [3]: 16
- MIC, agent alone (CAZ alone / BZB only) (MC4 100/AmpC-Enter): 32
- MIC ([4]; Escherichia coli, Table 3A, pBGS19, CAZ alone, read-out: MIC of ceftazidime (CAZ)): < 0.5 µg/mL
- MIC ([5]; Enterobacter cloacae, Table 3A, AmpC-MHN, CAZ alone, read-out: MIC of ceftazidime (CAZ)): 32 µg/mL
- MIC ([6]; Escherichia coli, Table 3A, CAZ alone, read-out: MIC of ceftazidime (CAZ)): 256 µg/mL
- MIC, agent alone (CAZ alone / BZB only) [7]: 32
- MIC, agent alone (CAZ alone / BZB only) [8]: 64
- MIC ([9]; Enterobacter cloacae, Table 3A, Ent. Der., CAZ alone, read-out: MIC of ceftazidime (CAZ)): 512 µg/mL
- MIC, agent alone (CAZ alone / BZB only) [10]: 16
- MIC, agent alone (CAZ alone / BZB only) [11]: 16
- MIC, agent alone (CAZ alone / BZB only) [12]: 8
- MIC, agent alone (CAZ alone / BZB only) [13]: 16
- MIC, agent alone (CAZ alone / BZB only) (MC4100/AmpC-E. coli): 8
- MIC, agent alone (CAZ alone / BZB only) [14]: 16
- MIC, agent alone (CAZ alone / BZB only) [15]: 8
- MIC, agent alone (CAZ alone / BZB only) [16]: 32

SMILES: OB(O)c1cc2ccccc2c2ccccc12 [9PHNB, 9-Phenanthreneboronic acid]
- MIC of ceftazidime plus inhibitor ([4]; Table 3A, pBGS19): <0.25 µg/mL
- MIC of inhibitor used alone without ceftazidime ([4]; pBGS19): 128 µg/mL
- MIC of inhibitor used alone without amoxicillin [4]: 256 µg/mL
- MIC of amoxicillin plus inhibitor [17]: 64 µg/mL
- MIC of inhibitor used alone without amoxicillin [17]: 256 µg/mL
- MIC of amoxicillin plus inhibitor [18]: 512 µg/mL
- MIC of inhibitor used alone without amoxicillin [18]: 256 µg/mL
- MIC of amoxicillin plus inhibitor [19]: 512 µg/mL
- MIC of inhibitor used alone without amoxicillin [19]: 256 µg/mL
- MIC of amoxicillin plus inhibitor [20]: 512 µg/mL
- MIC of inhibitor used alone without amoxicillin [20]: 256 µg/mL
- MIC of ceftazidime plus inhibitor ([5]; Table 3A, AmpC-MHN): 8/2
- MIC of inhibitor used alone without ceftazidime ([5]; AmpC-MHN): 256 µg/mL
- MIC of amoxicillin plus inhibitor [5]: 256 µg/mL
- MIC of inhibitor used alone without amoxicillin [5]: 256 µg/mL
- MIC of ceftazidime plus inhibitor ([6]; Table 3A): 256/64
- MIC of inhibitor used alone without ceftazidime [6]: 128 µg/mL
- Ki [21, 23]: 12.6 µM
- dissociation constant relative to MAPB (AmpC) ([21]; compared with MAPB): two to three-fold worse (higher)
- MIC of ceftazidime plus inhibitor ([9]; Table 3A, Ent. Der.): 512/128
- MIC of inhibitor used alone without ceftazidime ([9]; Ent. Der.): >512 µg/mL
- MIC of amoxicillin plus inhibitor [9]: 512 µg/mL
- MIC of inhibitor used alone without amoxicillin [9]: 256 µg/mL
- Ki ([22]; Tables 2A/2B, pH 7.0, 25° C., 100 μM FAP, N.I. = no inhibition observed at an inhibitor concentration of 100 μM, read-out: Ki E. coli TEM-1): 31 µM

SMILES: OB(O)c1ccc(-c2ccc(B(O)O)cc2)cc1 [BIPD, 4,4′-biphenyldiboronic acid]
- MIC of ceftazidime plus inhibitor ([4]; Table 3A, pBGS19): <0.12 µg/mL
- MIC of inhibitor used alone without ceftazidime ([4]; pBGS19): >256 µg/mL
- MIC of inhibitor used alone without amoxicillin [4]: 256 µg/mL
- MIC of amoxicillin plus inhibitor [17]: 128 µg/mL
- MIC of inhibitor used alone without amoxicillin [17]: 256 µg/mL
- MIC of amoxicillin plus inhibitor [18]: 128 µg/mL
- MIC of inhibitor used alone without amoxicillin [18]: 128 µg/mL
- MIC of amoxicillin plus inhibitor [19]: 256 µg/mL
- MIC of inhibitor used alone without amoxicillin [19]: 256 µg/mL
- MIC of amoxicillin plus inhibitor [20]: 256 µg/mL
- MIC of inhibitor used alone without amoxicillin [20]: 256 µg/mL
- MIC of ceftazidime plus inhibitor ([5]; Table 3A, AmpC-MHN): 8/2
- MIC of inhibitor used alone without ceftazidime ([5]; AmpC-MHN): >256 µg/mL
- MIC of amoxicillin plus inhibitor [5]: 128 µg/mL
- MIC of inhibitor used alone without amoxicillin [5]: 256 µg/mL
- MIC of ceftazidime plus inhibitor ([6]; Table 3A): 256/64
- MIC of inhibitor used alone without ceftazidime [6]: >256 µg/mL
- Ki ([21]; Example 1, read-out: Ki for AmpC): 0.18 ± 0.02 µM
- Ki [21, 23]: 0.6 µM
- MIC of ceftazidime plus inhibitor ([9]; Table 3A, Ent. Der.): 128/32
- MIC of inhibitor used alone without ceftazidime ([9]; Ent. Der.): >256 µg/mL
- MIC of amoxicillin plus inhibitor [9]: 256 µg/mL
- MIC of inhibitor used alone without amoxicillin [9]: 256 µg/mL
- Ki [22]: > 100 µM
